Measurements published in ChEMBL document CHEMBL3046422, “Insecticidal activity of imidacloprid derivatives with an alkoxy group at the C5 position of the pyridine ring” (2006).

Key:
Assay type in all cases: functional
Periplaneta americana [1] = test: Insecticidal activity against adult male Periplaneta americana (American cockroach) dosed through injection into abdomen assessed as mortality measured 24 hr post dose pre-treated with 50 ug metabolic inhibitor PB 1 hr before compound injection
Periplaneta americana [2] = test: Insecticidal activity against adult male Periplaneta americana (American cockroach) dosed through injection into abdomen assessed as mortality measured 24 hr post dose
Periplaneta americana [3] = test: Insecticidal activity against adult male Periplaneta americana (American cockroach) dosed through injection into abdomen assessed as mortality measured 24 hr post dose pre-treated with 50 ug metabolic inhibitor PB and 50 ug NIA16388 1 hr before compound injection

Row | Compound | log(1/MLD) (Periplaneta americana [1]) | log(1/MLD) (Periplaneta americana [2]) | log(1/MLD) (Periplaneta americana [3])
1 | O=[N+]([O-])/N=C1\NCCN1Cc1cnc(Cl)c(Cl)c1 [5-CHLOROIMIDACLOPRID] | 9.05 | 8.35 | 9.05
2 | COc1cc(CN2CCN/C2=N\[N+](=O)[O-])cnc1Cl | 8.74 | 7.43 | 8.74
3 | O=[N+]([O-])/N=C1\NCCN1Cc1ccc(Cl)nc1 [IMIDACLOPRID] | 10.15 | 8.96 | 10.15
4 | CC(C)Oc1cc(CN2CCN/C2=N\[N+](=O)[O-])cnc1Cl | 7.89 | 6.99 | 8.1
5 | CCOc1cc(CN2CCN/C2=N\[N+](=O)[O-])cnc1Cl | 7.87 | 7.07 | 8.08
6 | CCCOc1cc(CN2CCN/C2=N\[N+](=O)[O-])cnc1Cl | 6.89 | <6.86 | 6.89
7 | CCCCCOc1cc(CN2CCN/C2=N\[N+](=O)[O-])cnc1Cl | 6.46 | 5.86 | 6.46
8 | CCCCOc1cc(CN2CCN/C2=N\[N+](=O)[O-])cnc1Cl | 8.12 | 7.12 | 8.12
9 | O=[N+]([O-])/N=C1/NCCN1Cc1cnc(Cl)c(F)c1 [5-FLUOROIMIDACLOPRID] | 9.91 | 8.82 | 9.91
